{"source": "ChEMBL document CHEMBL1155377", "about": "“SAR of PXR transactivation in benzimidazole-based IGF-1R kinase inhibitors” (Bioorg Med Chem Lett, 2010)", "key": {"[1]": {"assay": "(§1) AUC in mouse plasma at 20 mg/kg, po", "format": "ADME, organism-based", "parameters": "dose 20 mg/kg, route oral", "settings": "plasma"}, "Mus musculus": {"test_system": "Mus musculus", "assay": "as §1", "format": "ADME, organism-based", "parameters": "dose 20 mg/kg, route oral", "settings": "in vivo"}}, "data": [{"smiles": "COC(=O)N1CCN(C2CCN(c3cc(C)c4nc(-c5c(NCCc6ncn(C)c6Cl)cc[nH]c5=O)[nH]c4c3)CC2)CC1", "values": [{"measurement": "AUC", "setting": "[1]", "result": 48, "unit": "µM·h"}]}, {"smiles": "Cc1cc(N2CCOCC2)cc2[nH]c(-c3c(NCCc4ncn(C)c4Cl)cc[nH]c3=O)nc12", "values": [{"measurement": "AUC", "setting": "Mus musculus", "result": 90, "unit": "µM·h"}]}, {"smiles": "Cc1cc(N2CCOCC2)cc2[nH]c(-c3c(NCCn4cc(Cl)cn4)cc[nH]c3=O)nc12", "values": [{"measurement": "AUC", "setting": "Mus musculus", "result": 51, "unit": "µM·h"}]}, {"smiles": "Cc1cc(N2CCOCC2)cc2[nH]c(-c3c(NC[C@@H](O)c4cccc(Cl)c4)cc[nH]c3=O)nc12", "values": [{"measurement": "AUC", "setting": "Mus musculus", "result": 8.2, "unit": "µM·h"}]}, {"smiles": "COC(=O)N1CCN(C2CCN(c3cc(C)c4nc(-c5c(NCCn6cc(Cl)cn6)cc[nH]c5=O)[nH]c4c3)CC2)CC1", "values": [{"measurement": "AUC", "setting": "[1]", "result": 52, "unit": "µM·h"}]}, {"smiles": "COC(=O)N1CCN(C2CCN(c3cc(C)c4nc(-c5c(NC[C@@H](O)c6cccc(Cl)c6)cc[nH]c5=O)[nH]c4c3)CC2)CC1", "values": [{"measurement": "AUC", "setting": "[1]", "result": 11, "unit": "µM·h"}]}]}
